Measured values published in PMC6143625, “A high throughput screen for next-generation leads targeting malaria parasite transmission” (Nature Communications, 2018).
Read-outs that look alike come from different tables or passages of the source.

What was measured:
[1] = system: P. falciparum stage V female gametocytes (female gamete formation); experiment: P. falciparum dual gamete formation assay (Pf DGFA), female readout (Pfs25 expression), 48 h carry-over format; format: cell-based, Plasmodium falciparum NF54; conditions: Plasmodium falciparum
[2] = system: P. berghei strain CTRPpGFP early mosquito stage (ookinete) development; experiment: P. berghei ookinete development assay (Pb ODA); format: cell-based, Plasmodium berghei; conditions: Plasmodium berghei; 24h incubation
Experimental: All mouse procedures were performed in accordance with the UK Animals (Scientific Procedures) Act (PPL 70/7185) and approved by the Imperial College Animal Welfare and Ethical Review Body (AWERB). The ability of test compounds to inhibit P. berghei early mosquito stage development was tested in the Ookinete Development Assay[37] with a few exceptions. Anaesthetised 6- to 8-week-old female Tucks Ordinary (TO) mice infected with P. berghei strain CTRPpGFP[38] were rapidly exsanguinated by cardiac puncture and 500 µl of blood diluted in 25 ml of ookinete medium supplemented with 20% foetal bovine serum. Immediately the blood/medium mixture was dispensed by multichannel pipette into 384 well plates containing pre-plated test compounds. 10 µM cycloheximide and DMSO were used as the positive and negative controls, respectively. Plates were stored in the dark in a humidified incubator at 18 °C for 24 h. Ookinete production was imaged by fluorescence microscopy of GFP expression under the ookinete-specific CTRP promoter using a Nikon Ti-E widefield microscope and ×10 objective. Ookinete production was quantified using ICY and percentage inhibition calculated as above with reference to positive and negative controls.

[3] = system: P. falciparum 3D7 asexual blood stages; experiment: Whole-cell time extended asexual growth assay (pLDH); format: cell-based; conditions: Plasmodium falciparum; for inhibition at 2 µM: primary screen, read-out: %Inh Asex stages @2uM
Experimental: Asexual activity was assayed via Plasmodium lactate dehydrogenase activity (pLDH), a surrogate of asexual parasite growth. […] 2 µM artesunate and DMSO were used as the positive and negative controls, respectively. […] After plate mixing, NBT reduction was measured by absorbance at 650 nm using Envision (Perkin Elmer).

[4] = system: Stage IV–V 3D7 gametocytes; experiment: Gametocytocidal ATP-based bioluminescence assay (GC-ATP); format: cell-based, Plasmodium falciparum 3D7; conditions: Plasmodium falciparum, 3D7; 48h incubation; read-out: Pf late stage gametocyte (ATP depletion) IC50
Experimental: The metabolic viability of late stage gametocytes was determined using a gametocyte ATP bioluminescence assay. Stage IV–V 3D7 gametocyte cultures were double-purified by density gradient sedimentation over NycoPrep® followed by magnetic isolation. Then, parasites (50 µl per well containing 12,500 gametocytes) were added to compound pre-dispensed 384-well plates (781091, Greiner) and incubated at 37 °C for 48 h under 5% CO2/3% O2/92% N2. BacTiter-Glo® kit (G8231, Promega) was used to determine the ATP levels of viable parasites according to manufacturer’s instructions. After reagent addition (50 µl per well), luminescence of the plates was measured using a microplate reader (HTS counter Victor, Wallac).

[5] = target: T1, recombinant luciferase (Photinus pyralis) (Photinus pyralis, UniProt P08659); experiment: Recombinant luciferase inhibition assay; format: biochemical; conditions: 1h incubation; read-out: Recombinant luciferase assay IC50
T1 construct: purchased Promega E1701
Experimental: A counter-screen to the P. berghei liver stage assay was run against recombinant luciferase (Photinus pyralis) to measure the intrinsic bioluminescence inhibition from select compounds. Briefly, compounds were plated in 12-point serial dose response (50–2.82 × 10^−4 µM) in 1536-well opaque-bottom plates (789173-F, Greiner Bio-One). A 20 pM QuantiLum® Recombinant Luciferase (E1701, Promega) containing solution was made in screening media (DMEM, 11965–092, Invitrogen; 5% FBS, 35–011-CV, Corning; 5x Pen Strep Glutamine, 10378–016, Invitrogen), and 8 µl were added to each well. After 1 h incubation at room temperature, 2 µl of Bright-Glo™ (E2610, Promega) were dispensed per well, and bioluminescence was immediately measured using the EnVision microplate reader (PerkinElmer). DMSO (0.5%) and Luciferase Inhibitor-2 (9.8 µM) (119114, MilliporeSigma) served as negative and positive controls, respectively.

[6] = 24h preincubation/carry-over, read-out: Pf DGFA Female IC50
[7] = 48h preincubation/carry-over, read-out: Pf DGFA Female IC50
[8] = 72h incubation, read-out: Pf Asexual IC50
[9] = dose response retest, 72 h, read-out: IC50 (µM) Asex stages

T1 sequence (P08659 whole entry): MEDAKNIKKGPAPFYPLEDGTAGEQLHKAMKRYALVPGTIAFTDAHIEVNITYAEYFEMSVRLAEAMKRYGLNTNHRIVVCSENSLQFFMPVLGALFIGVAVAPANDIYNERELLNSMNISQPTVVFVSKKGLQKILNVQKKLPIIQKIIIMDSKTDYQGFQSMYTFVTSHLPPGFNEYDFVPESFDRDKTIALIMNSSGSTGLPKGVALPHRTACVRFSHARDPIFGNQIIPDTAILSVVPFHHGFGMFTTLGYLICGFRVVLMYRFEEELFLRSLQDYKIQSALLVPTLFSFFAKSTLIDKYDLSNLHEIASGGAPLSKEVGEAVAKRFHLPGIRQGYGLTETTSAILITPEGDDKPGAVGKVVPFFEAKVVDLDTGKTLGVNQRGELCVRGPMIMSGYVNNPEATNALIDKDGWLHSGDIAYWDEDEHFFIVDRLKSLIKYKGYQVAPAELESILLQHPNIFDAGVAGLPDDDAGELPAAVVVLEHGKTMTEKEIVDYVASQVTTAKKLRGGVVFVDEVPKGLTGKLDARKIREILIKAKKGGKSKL

| SMILES | IC50 [1, 6] | IC50 ([1]; 48 h, dose response retest of primary hits, 48 h incubation, read-out: Female IC50) | IC50 [1, 7] | inhibition at 2 µM ([1]; primary screen, 2 uM, 48 h incubation, single replicate) | IC50 [2] | IC50 [3, 8] | IC50 [4] | IC50 [5] | IC50 [3, 9] | inhibition at 2 µM ([3]; 72 h) |
| --- | --- | --- | --- | --- | --- | --- | --- | --- | --- | --- |
| Cc1ccc(-c2cc(C(=O)NCCC3=CCCCC3)[nH]n2)o1 [DDD01255968] | > 12.5 µM | > 10 µM | > 12.5 µM | < 30% | > 12.5 µM | > 20 µM | > 10 µM | 17.9 µM | – | – |
| CCn1ncc(Br)c1CN(C)S(=O)(=O)c1ccc(C)cc1 [DDD01259521] | > 12.5 µM | – | > 12.5 µM | – | > 12.5 µM | 1.06 µM | > 10 µM | > 50 µM | 1.02 µM | 56.1% |
| c1cnnc(N2CCCC2CNc2ncnc3sccc23)c1 (stereo not drawn) [DDD01299704] | > 12.5 µM | – | > 12.5 µM | – | > 12.5 µM | 0.44 µM | > 10 µM | > 50 µM | 0.532 µM | 66.7% |
